Data published in patent US12083089B2, “Compositions and methods for stimulating ventilatory and/or respiratory drive” (CASE WESTERN RESERVE UNIVERSITY, priority 2015, dated 2024).

Legend:
[1] = test system: freely moving adult male Sprague-Dawley rats; test: Whole-body plethysmography of ventilatory parameters in morphine-treated rats; conditions: morphine 10 mg/kg IV; for EF50, ml/sec - Total Response (% change) / Expiratory Drive (TV/Te), ml/sec - Total Response (% change) / Expiratory Time (Te), sec - Total Response (% change) / Frequency, breaths/min - Total Response (% change) / Inspiratory Drive (TV/Ti), ml/sec - Total Response (% change) / Inspiratory Time (Ti), sec - Total Response (% change) / Inspiratory Time/Expiratory Time - Total Response (% change) / Minute Ventilation, ml/min - Total Response (% change) / Peak Expiratory Flow, ml/sec - Total Response (% change) / Peak Expiratory Flow/Peak Inspiratory Flow - Total Response (% change) / Peak Inspiratory Flow, ml/sec - Total Response (% change) / Tidal Volume (TV), ml - Total Response (% change): over the 15 min before drug injection
Experimental: Permissions, rats, surgical procedures and blinding of protocols. All studies were carried out in accordance with the NIH Guide for the Care and Use of Laboratory Animals (NIH Publication No. […]) revised in 1996. The protocols were approved by the Animal Care and Use Committees of the University of Virginia, Case Western Reserve University and Loma Linda University. In addition, all studies were carried out in compliance with the ARRIVE (Animal Research: Reporting of In Vivo Experiments) guidelines. Adult male Sprague-Dawley rats (Harlan, Madison, WI, USA) were implanted with jugular vein catheters under 2% isoflurane anesthesia and some rats received femoral arterial catheters. The rats were allowed at least four days to recover from surgery before use. All arterial catheters were flushed daily with heparin solution (50 units of heparin in phosphate-buffered saline at 0.1 M, pH 7.4). All catheters were flushed with phosphate-buffered saline (0.1 M, pH 7.4) approximately four hours before commencement of the experiments. All studies were performed in a quiet laboratory with relative humidity of 49±2% and room temperature of 21.4±0.2° C. […] Also, please note that the antinociception and ventilatory studies were done in separate groups of rats so as to not complicate the respiratory measurements. The recording (plethysmography, antinociception) sessions and the arterial blood gas assays were done by a particular investigator who administered the opioid, vehicle or test drug such as d-cystine diME. The syringes containing the vehicle or test drug were made up by another investigator, such that the investigator running the actual experiment was blinded to the treatment protocol. In every case, the data files resulting from a particular study were first collated and analyzed by another investigator in the group.
Ventilatory parameters were recorded in freely moving rats by whole body plethysmography (PLY3223; Data Sciences International, St. Paul, MN). The rats were placed in individual chambers and given 60 min to acclimatize to allow true resting ventilatory parameters to be established. […] The rats received another injection of vehicle or 1-NACme (500 μmol/kg, IV) 15 min later and ventilatory parameters were recorded for a further 60 min.
The provided software (Fine Pointe, BUXCO) constantly corrected digitized values for changes in chamber temperature and humidity. Pressure changes associated with the respiratory waveforms were then converted to volumes (i.e., TV, PIF and PEF) using the algorithm of Epstein and colleagues. Specifically, factoring in chamber temperature and humidity, the cycle analyzers filtered the acquired signals, and BUXCO algorithms (Fine Pointe) generated an array of box flow data that identified a waveform segment as an acceptable breath. From that data vector, the minimum and maximum values were determined. Flows at this point were considered to be “box flow” signals.
The recorded data (1 min bins) and derived parameters, Vt/Ti and Response Area (cumulative percent changes from pre-values) were taken for statistical analyses. The pre-drug 1 min bins excluded occasional marked deviations from resting due to movements or scratching by the rats. These exclusions ensured accurate determinations of baseline parameters. The data are presented as mean±SEM. All data unless other-wise stated (see immediately below) were analyzed by one-way or two-way analysis of variance followed by Student's modified t test with Bonferroni corrections for multiple comparisons between means using the error mean square terms from each ANOVA. A value of P<0.05 denoted the initial level of statistical significance that was modified according to the number of comparisons between means.

[2] = test system: freely moving rats; test: Hot-plate (hind-paw withdrawal) latency (HPL), Hargreaves's test, morphine 10 mg/kg; assay type: in vivo, rat; conditions: morphine 10 mg/kg IV in vehicle-treated rats
[3] = test system: freely moving rats; test: Arterial blood-gas chemistry and A-a gradient in morphine-treated rats; assay type: in vivo, rat; conditions: freely moving rats, morphine 10 mg/kg IV, then drug 500 μmol/kg IV 15 min later
[4] = freely moving rats, then d-cystine diEE 500 μmol/kg IV 15 min later
[5] = rats that subsequently received D-Cystine diEE
[6] = rats that subsequently received vehicle, D-Cystine diEE study
[7] = rats that subsequently received D-Cystine
[8] = rats that subsequently received L-NACme
[9] = rats that subsequently received vehicle, D-Cystine study
[10] = rats that subsequently received vehicle, L-NACme study

Question: Which results are given for CN1CC[C@]23c4c5ccc(O)c4O[C@H]2[C@@H](O)C=C[C@H]3[C@H]1C5 [Morphine, morphine]?
Answer: changes in EF50 [1, 4]: sustained increase; changes in expiratory drive (TV/Te) [1, 4]: relatively pronounced but shorter-lived decrease; changes in expiratory time (Te) [1, 4]: decreases in Te; changes in frequency of breathing (Freq) [1, 4]: brief increase in Freq that was followed a relatively transient decrease; changes in inspiratory drive (TV/Ti) [1, 4]: prompt and sustained decrease; changes in inspiratory time (Ti) [1, 4]: sustained increases in Ti; changes in minute ventilation (MV) [1, 4]: transient increase in MV that was followed by a sustained decrease; changes in peak expiratory flow (PEF) [1, 4]: lesser decreases; changes in peak inspiratory flow (PIF) [1, 4]: pronounced and sustained decrease; changes in tidal volume (TV) [1, 4]: prompt and sustained decrease; EF50, ml/sec - Total Response (% change) [1, 5]: +33.4 ± 15.0 %; Expiratory Drive (TV/Te), ml/sec - Total Response (% change) [1, 5]: −14.6 ± 10.2%; Expiratory Time (Te), sec - Total Response (% change) [1, 5]: −2.0 ± 6.1%; Frequency, breaths/min - Total Response (% change) [1, 5]: −1.9 ± 6.6%; Inspiratory Drive (TV/Ti), ml/sec - Total Response (% change) [1, 5]: −44.5 ± 5.5 %; Inspiratory Time (Ti), sec - Total Response (% change) [1, 5]: +40.2 ± 6.3 %; Inspiratory Time/Expiratory Time - Total Response (% change) [1, 5]: −27.1 ± 6.2 %; Minute Ventilation, ml/min - Total Response (% change) [1, 5]: −28.4 ± 6.4 %; Peak Expiratory Flow, ml/sec - Total Response (% change) [1, 5]: −16.2 ± 5.7 %; Peak Expiratory Flow/Peak Inspiratory Flow - Total Response (% change) [1, 5]: +21.5 ± 6.7 %; Peak Inspiratory Flow, ml/sec - Total Response (% change) [1, 5]: −29.7 ± 2.7 %; Tidal Volume (TV), ml - Total Response (% change) [1, 5]: −26.3 ± 7.4 %; EF50, ml/sec - Total Response (% change) [1, 6]: +30.5 ± 14.7 %; Expiratory Drive (TV/Te), ml/sec - Total Response (% change) [1, 6]: −22.3 ± 13.6%; Expiratory Time (Te), sec - Total Response (% change) [1, 6]: −4.7 ± 6.0%; Frequency, breaths/min - Total Response (% change) [1, 6]: +0.3 ± 4.3%; Inspiratory Drive (TV/Ti), ml/sec - Total Response (% change) [1, 6]: −44.3 ± 7.1 %; Inspiratory Time (Ti), sec - Total Response (% change) [1, 6]: +38.6 ± 2.9 %; Inspiratory Time/Expiratory Time - Total Response (% change) [1, 6]: −24.1 ± 4.7 %; Minute Ventilation, ml/min - Total Response (% change) [1, 6]: −28.6 ± 7.2 %; Peak Expiratory Flow, ml/sec - Total Response (% change) [1, 6]: −17.4 ± 6.1 %; Peak Expiratory Flow/Peak Inspiratory Flow - Total Response (% change) [1, 6]: +27.6 ± 7.0 %; Peak Inspiratory Flow, ml/sec - Total Response (% change) [1, 6]: −29.5 ± 8.1 %; Tidal Volume (TV), ml - Total Response (% change) [1, 6]: −29.3 ± 7.6 %; Frequency: Morphine - first 15 min response (%) [1, 7]: −4.7 ± 3.1%; Frequency: Morphine - peak (+) response (%) [1, 7]: +62 ± 7 %; Frequency: Morphine peak (−) response (%) [1, 7]: −23 ± 4 %; Minute Ventilation: Morphine - first 15 min response (%) [1, 7]: −38 ± 5 %; Minute Ventilation: Morphine - peak (+) response (%) [1, 7]: +14 ± 3 %; Minute Ventilation: Morphine peak (−) response (%) [1, 7]: −61 ± 8 %; Tidal Volume: Morphine - first 15 min response (%) [1, 7]: −35 ± 5 %; Tidal Volume: Morphine - peak (+) response (%) [1, 7]: −30 ± 4 %; Tidal Volume: Morphine peak (−) response (%) [1, 7]: −51 ± 6 %; EF50, ml/sec - Peak Responses (% change) [1, 5]: +122 ± 27 %; Expiratory Drive (TV/Te), ml/sec - Peak Responses (% change) [1, 5]: −46.2 ± 7.8 %; Expiratory Time (Te), sec - Peak Responses (% change) [1, 5]: −32.4 ± 17.6%; Frequency, breaths/min - Peak Responses (% change) [1, 5]: −20.0 ± 4.5 %; Inspiratory Drive (TV/Ti), ml/sec - Peak Responses (% change) [1, 5]: −53.7 ± 6.0 %; Inspiratory Time (Ti), sec - Peak Responses (% change) [1, 5]: +41.3 ± 7.1 %; Inspiratory Time/Expiratory Time - Peak Responses (% change) [1, 5]: −41.7 ± 7.8 %; Minute Ventilation, ml/min - Peak Responses (% change) [1, 5]: −48.5 ± 6.0 %; Peak Expiratory Flow, ml/sec - Peak Responses (% change) [1, 5]: −34.8 ± 6.7 %; Peak Expiratory Flow/Peak Inspiratory Flow - Peak Responses (% change) [1, 5]: +26.7 ± 5.4 %; Peak Inspiratory Flow, ml/sec - Peak Responses (% change) [1, 5]: −43.2 ± 2.7 %; Tidal Volume (TV), ml - Peak Responses (% change) [1, 5]: −35.8 ± 6.9 %; Frequency: Morphine - first 15 min response (%) [1, 8]: −4.9 ± 2.8%; Frequency: Morphine - peak (+) response (%) [1, 8]: +42 ± 6 %; Frequency: Morphine peak (−) response (%) [1, 8]: −22 ± 4 %; Minute Ventilation: Morphine - first 15 min response (%) [1, 8]: −35 ± 3 %; Minute Ventilation: Morphine - peak (+) response (%) [1, 8]: +20 ± 6 %; Minute Ventilation: Morphine peak (−) response (%) [1, 8]: −54 ± 4 %; Tidal Volume: Morphine - first 15 min response (%) [1, 8]: −34 ± 3 %; Tidal Volume: Morphine - peak (+) response (%) [1, 8]: −16 ± 6 %; Tidal Volume: Morphine peak (−) response (%) [1, 8]: −40 ± 6 %; EF50, ml/sec - Peak Responses (% change) [1, 6]: +133 ± 42 %; Expiratory Drive (TV/Te), ml/sec - Peak Responses (% change) [1, 6]: −51.5 ± 10.1 %; Expiratory Time (Te), sec - Peak Responses (% change) [1, 6]: −29.3 ± 17.1%; Frequency, breaths/min - Peak Responses (% change) [1, 6]: −21.5 ± 3.4 %; Inspiratory Drive (TV/Ti), ml/sec - Peak Responses (% change) [1, 6]: −52.7 ± 5.4 %; Inspiratory Time (Ti), sec - Peak Responses (% change) [1, 6]: +37.9 ± 3.0 %; Inspiratory Time/Expiratory Time - Peak Responses (% change) [1, 6]: −38.0 ± 4.2 %; Minute Ventilation, ml/min - Peak Responses (% change) [1, 6]: −51.2 ± 6.3 %; Peak Expiratory Flow, ml/sec - Peak Responses (% change) [1, 6]: −38.1 ± 8.5 %; Peak Expiratory Flow/Peak Inspiratory Flow - Peak Responses (% change) [1, 6]: +30.2 ± 3.4 %; Peak Inspiratory Flow, ml/sec - Peak Responses (% change) [1, 6]: −45.6 ± 7.0 %; Tidal Volume (TV), ml - Peak Responses (% change) [1, 6]: −42.9 ± 8.7 %; Frequency: Morphine - first 15 min response (%) [1, 9]: −3.8 ± 2.6%; Frequency: Morphine - peak (+) response (%) [1, 9]: +57 ± 8 %; Frequency: Morphine peak (−) response (%) [1, 9]: −21 ± 3 %; Minute Ventilation: Morphine - first 15 min response (%) [1, 9]: −39 ± 4 %; Minute Ventilation: Morphine - peak (+) response (%) [1, 9]: +9 ± 3 %; Minute Ventilation: Morphine peak (−) response (%) [1, 9]: −60 ± 9 %; Tidal Volume: Morphine - first 15 min response (%) [1, 9]: −37 ± 6 %; Tidal Volume: Morphine - peak (+) response (%) [1, 9]: −32 ± 5 %; Tidal Volume: Morphine peak (−) response (%) [1, 9]: −49 ± 5 %; Frequency: Morphine - first 15 min response (%) [1, 10]: −4.0 ± 2.1%; Frequency: Morphine - peak (+) response (%) [1, 10]: +47 ± 6 %; Frequency: Morphine peak (−) response (%) [1, 10]: −24 ± 3 %; Minute Ventilation: Morphine - first 15 min response (%) [1, 10]: −36 ± 3 %; Minute Ventilation: Morphine - peak (+) response (%) [1, 10]: +19 ± 5 %; Minute Ventilation: Morphine peak (−) response (%) [1, 10]: −53 ± 5 %; Tidal Volume: Morphine - first 15 min response (%) [1, 10]: −33 ± 4 %; Tidal Volume: Morphine - peak (+) response (%) [1, 10]: −19 ± 3 %; Tidal Volume: Morphine peak (−) response (%) [1, 10]: −38 ± 5 %; duration of the increase in HPL [2]: at least 4 h; changes in ABG chemistry (pH, pCO2, pO2 and sO2) ([3]; FIG. 18): substantial falls in pH, pO2 and sO2 accompanied by substantial increases in pCO2; changes in A-a gradient ([3]; FIG. 19): substantial and equivalent increases
